Results as given in ChEMBL document CHEMBL1759870, “Identification, structural properties and chelating capacity of miltipolone as a broad-spectrum inhibitor to cancer cells” (Eur J Med Chem, 2011).

Columns and labels:
[1] = tested on: HUVEC; assay: Antiproliferative activity against human HUVEC cells after 96 hrs by MTT assay; assay type: cell-based
[2] = tested on: Bel-7402; assay: Antiproliferative activity against human Bel7402 cells after 96 hrs by MTT assay; assay type: functional, cell-based; settings: Bel-7402, 96 h
[3] = tested on: HeLa; assay: Antiproliferative activity against human HeLa cells after 96 hrs by MTT assay; assay type: functional, cell-based
[4] = tested on: HT-1080; assay: Antiproliferative activity against human HT1080 cells after 96 hrs by MTT assay; assay type: functional, cell-based; settings: HT-1080, 96 h
[5] = tested on: A-375; assay: Antiproliferative activity against human A375 cells after 96 hrs by MTT assay; assay type: functional, cell-based; settings: A-375, 96 h
[6] = tested on: NCI-N87; assay: Antiproliferative activity against human NCI-N87 cells after 96 hrs by MTT assay; assay type: functional, cell-based; settings: NCI-N87, 96 h
[7] = tested on: PANC-1; assay: Antiproliferative activity against human PANC1 cells after 96 hrs by MTT assay; assay type: functional, cell-based; settings: PANC-1, 96 h

Row | IC50 [2] | IC50 [3] | IC50 [4] | IC50 [5] | IC50 [7] | SMILES | IC50 [1] | IC50 [6]
1 |  |  |  |  |  | CO[C@@H]1[C@H](OC(=O)NC(=O)CCl)CC[C@]2(CO2)[C@H]1[C@@]1(C)O[C@@H]1CC=C(C)C [O-CHLOROACETYLCARBAMOYLFUMAGILLOL] | 0.76 nM | 
2 | 578 nM | 100 nM | 1.2 nM | 4.6 nM | 384 nM | CC(=O)O[C@H]1C(=O)[C@@]2(C)[C@H]([C@H](OC(=O)c3ccccc3)[C@]3(O)C[C@H](OC(=O)[C@H](O)[C@@H](NC(=O)c4ccccc4)c4ccccc4)C(C)=C1C3(C)C)[C@]1(OC(C)=O)CO[C@@H]1C[C@@H]2O [PACLITAXEL] |  | 5.9 nM
